“And” between values parts separate entries of the source, which are not always exact repeats. Equal entries are not always repeated.
Tests used:
placental BM vesicles [1] = details: cited from earlier work
OAT4 [2] = target: T1, OAT4 (Homo sapiens, UniProt Q9NSA0); experiment: Effect of E3S on OAT4-mediated uptake of pravastatin; format: in vitro ADME; details: E3S (200 μM), 2 μM pravastatin
T1 sequence (Q9NSA0 1-550): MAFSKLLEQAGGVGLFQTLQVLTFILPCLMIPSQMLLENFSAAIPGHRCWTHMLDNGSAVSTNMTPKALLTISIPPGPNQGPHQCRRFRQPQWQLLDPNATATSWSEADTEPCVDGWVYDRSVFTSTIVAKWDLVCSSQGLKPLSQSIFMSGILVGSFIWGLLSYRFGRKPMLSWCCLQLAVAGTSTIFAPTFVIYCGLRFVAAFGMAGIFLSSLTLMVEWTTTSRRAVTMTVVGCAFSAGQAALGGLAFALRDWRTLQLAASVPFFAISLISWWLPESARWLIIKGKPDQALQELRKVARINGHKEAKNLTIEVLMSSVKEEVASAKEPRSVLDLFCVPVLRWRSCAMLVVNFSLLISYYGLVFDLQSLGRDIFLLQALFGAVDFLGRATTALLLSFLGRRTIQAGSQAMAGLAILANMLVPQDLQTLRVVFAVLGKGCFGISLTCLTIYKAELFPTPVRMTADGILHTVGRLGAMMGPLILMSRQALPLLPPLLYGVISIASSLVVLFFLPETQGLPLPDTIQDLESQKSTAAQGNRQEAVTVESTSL

OATP5A1 = OATP5A1 (Homo sapiens, UniProt Q9H2Y9); experiment: Uptake into HEK293 cells stably overexpressing OATP5A1; format: in vitro ADME; details: for transport by OATP5A1 in HEK293-OATP5A1 cells: pH 7.4
OAT4 [3] = target: T1, OAT4; experiment: Uptake into tetracycline-inducible T-REx-OAT4-293 cells; details: for Uptake, Net (transporter-mediated) / Uptake, Transporter-expressing cells: OAT4, 4 μM pravastatin; for Kt / Vmax: OAT4-mediated uptake, physiological pH, 37°C; for Uptake, Control: control cells for OAT4, 4 μM pravastatin
placenta = details: ex vivo placental perfusion; cited from earlier work
OATP2A1 [4] = target: T2, OATP2A1 (Homo sapiens, UniProt Q92959); experiment: Uptake into HEK293 cells stably overexpressing OATP2A1; format: in vitro ADME; details: 1 min
OAT4 [5] = target: T1, OAT4; experiment: OAT4-mediated efflux of preloaded pravastatin from T-REx-OAT4-293 cells; format: in vitro ADME
placental BM vesicles [6] = experiment: Glutarate-stimulated uptake of pravastatin by placental BM vesicles; format: in vitro ADME, human
placental AM vesicles = experiment: Glutarate-stimulated uptake of pravastatin by placental AM vesicles; format: in vitro ADME, human; details: 1 μM [3H]Pravastatin, 37°C
OAT4 [7] = details: S2 cells expressing OAT4, single component saturation kinetics; ref 20 (Nakagomi-Hagihara et al, 2007); cited from earlier work
OATP1A2 = target: T3, OATP1A2 (Homo sapiens, UniProt P46721); experiment: Uptake into HEK293 cells transiently overexpressing OATP1A2; format: in vitro ADME
T3 sequence (P46721 1-670): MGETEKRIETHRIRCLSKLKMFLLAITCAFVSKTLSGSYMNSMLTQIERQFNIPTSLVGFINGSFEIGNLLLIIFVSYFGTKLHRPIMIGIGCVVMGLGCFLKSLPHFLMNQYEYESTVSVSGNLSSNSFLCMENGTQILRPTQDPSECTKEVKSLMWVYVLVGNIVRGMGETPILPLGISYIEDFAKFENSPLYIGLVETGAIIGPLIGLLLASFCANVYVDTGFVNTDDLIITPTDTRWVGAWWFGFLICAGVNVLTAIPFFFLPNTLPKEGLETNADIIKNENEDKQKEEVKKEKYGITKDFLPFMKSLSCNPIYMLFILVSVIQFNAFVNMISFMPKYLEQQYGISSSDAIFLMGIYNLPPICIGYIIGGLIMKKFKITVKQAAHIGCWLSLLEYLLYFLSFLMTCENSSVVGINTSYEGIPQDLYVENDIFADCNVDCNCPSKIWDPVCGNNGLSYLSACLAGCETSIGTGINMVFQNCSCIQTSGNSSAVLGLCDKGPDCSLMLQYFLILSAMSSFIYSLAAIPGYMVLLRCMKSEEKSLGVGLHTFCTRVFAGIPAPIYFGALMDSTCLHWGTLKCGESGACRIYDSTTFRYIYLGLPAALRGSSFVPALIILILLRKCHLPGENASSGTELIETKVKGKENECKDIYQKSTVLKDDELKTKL

OATP2B1 = target: T4, OATP2B1 (Homo sapiens, UniProt O94956)
T4 sequence (O94956 1-709): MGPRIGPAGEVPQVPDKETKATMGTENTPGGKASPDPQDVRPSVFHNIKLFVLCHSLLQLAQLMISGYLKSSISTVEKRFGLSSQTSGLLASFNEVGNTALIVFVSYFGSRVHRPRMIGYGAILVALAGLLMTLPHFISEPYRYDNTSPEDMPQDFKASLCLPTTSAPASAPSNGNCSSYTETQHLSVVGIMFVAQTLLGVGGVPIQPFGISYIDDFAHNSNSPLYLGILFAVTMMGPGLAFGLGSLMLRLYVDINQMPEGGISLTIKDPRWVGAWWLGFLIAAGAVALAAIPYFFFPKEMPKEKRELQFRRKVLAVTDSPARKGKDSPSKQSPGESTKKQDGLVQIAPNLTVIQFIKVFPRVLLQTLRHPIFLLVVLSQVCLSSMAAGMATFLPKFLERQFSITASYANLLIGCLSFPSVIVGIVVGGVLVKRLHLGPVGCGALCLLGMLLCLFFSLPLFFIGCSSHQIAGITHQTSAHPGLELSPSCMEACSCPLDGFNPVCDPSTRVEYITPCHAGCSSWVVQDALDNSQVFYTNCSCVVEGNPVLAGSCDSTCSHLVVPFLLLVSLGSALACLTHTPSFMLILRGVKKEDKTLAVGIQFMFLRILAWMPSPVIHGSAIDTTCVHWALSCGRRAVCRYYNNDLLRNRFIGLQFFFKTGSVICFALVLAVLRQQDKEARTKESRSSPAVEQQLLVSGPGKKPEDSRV

[8] = pregnant women taking 10 mg daily dose; cited from earlier work
OATP2A1 [9] = target: T2, OATP2A1; details: 2 μM pravastatin
[10] = GA (glutaric acid preload), 30 s
[11] = higher concentration range (low affinity)
[12] = OATP2A1-mediated uptake, physiological pH, 37°C
[13] = OATP1A2-mediated uptake at pH 6.0
[14] = OATP1A2-mediated uptake, physiological pH, 37°C, 30 s

Chain of OATP5A1 (Q9H2Y9 whole entry): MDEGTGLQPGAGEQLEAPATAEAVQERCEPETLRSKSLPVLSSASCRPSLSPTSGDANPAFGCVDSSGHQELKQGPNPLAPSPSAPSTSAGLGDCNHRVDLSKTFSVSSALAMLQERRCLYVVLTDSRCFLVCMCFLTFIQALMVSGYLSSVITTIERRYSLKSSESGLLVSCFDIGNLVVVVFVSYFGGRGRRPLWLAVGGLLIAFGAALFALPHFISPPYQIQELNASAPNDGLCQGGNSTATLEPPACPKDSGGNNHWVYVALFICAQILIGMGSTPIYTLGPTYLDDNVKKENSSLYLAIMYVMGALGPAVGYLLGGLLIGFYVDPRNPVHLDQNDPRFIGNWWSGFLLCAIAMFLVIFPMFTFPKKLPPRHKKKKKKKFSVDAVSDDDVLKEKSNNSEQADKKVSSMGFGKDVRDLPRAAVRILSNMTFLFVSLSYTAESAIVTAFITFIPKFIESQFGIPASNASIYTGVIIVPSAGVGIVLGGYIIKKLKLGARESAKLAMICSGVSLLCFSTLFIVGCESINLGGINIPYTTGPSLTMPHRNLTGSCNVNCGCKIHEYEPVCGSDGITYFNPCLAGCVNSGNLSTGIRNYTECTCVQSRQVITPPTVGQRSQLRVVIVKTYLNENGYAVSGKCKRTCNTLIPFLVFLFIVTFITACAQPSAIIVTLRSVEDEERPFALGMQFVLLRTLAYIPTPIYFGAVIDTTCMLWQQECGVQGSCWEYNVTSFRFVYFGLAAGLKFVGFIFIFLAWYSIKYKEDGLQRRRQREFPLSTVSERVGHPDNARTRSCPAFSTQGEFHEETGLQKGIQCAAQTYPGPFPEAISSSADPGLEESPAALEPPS

## C[C@]12CC[C@H](O)CC1=CC[C@@H]1[C@@H]2CC[C@]2(C)C(=O)[C@H](O)C[C@@H]12 [16α-hydroxydehydroepiandrosterone]
Placental BM vesicles [1]
  increase of the uptake into placental BM vesicles by glutarate trans-stimulation: 56%

## C[C@]12CC[C@@H]3c4ccc(OS(=O)(=O)O)cc4CC[C@H]3[C@@H]1CCC2=O [E3S, estrone-3-sulfate]
OAT4 [2]
  inhibition of OAT4-mediated uptake of pravastatin: complete inhibition

## CCCCC[C@H](O)/C=C/[C@H]1[C@H](O)CC(=O)[C@@H]1C/C=C\CCCC(=O)O [PE2, Prostaglandin-E2]
OATP5A1
  transport by OATP5A1 in HEK293-OATP5A1 cells: none of the substrates tested, namely pravastatin, E3S, PE2 and fluorescein were found to be transported

## CC[C@H](C)C(=O)O[C@H]1C[C@H](O)C=C2C=C[C@H](C)[C@H](CC[C@@H](O)C[C@@H](O)CC(=O)O)[C@H]21 [Pravastatin]
OAT4 [3]; 30 s, chloride, no glutarate preload
  Uptake, Net (transporter-mediated): 2.86 ± 0.27 pmol/mg protein/min
OAT4 [3]; Cl-free uptake buffer, 30 s
  Uptake, Net (transporter-mediated): 7.15 ± 0.59 pmol/mg protein/min
  Uptake, Transporter-expressing cells: 8.66 ± 0.80 ^*^, # pmol/mg protein/min
  Uptake, Control: 1.51 ± 0.24 pmol/mg protein/min
OAT4 [3]; [10]
  Uptake, Net (transporter-mediated): 5.17 ± 0.84 pmol/mg protein/min
  Uptake, Transporter-expressing cells: 7.04 ± 0.97 ^*^, # pmol/mg protein/min
  Uptake, Control: 1.87 ± 0.25 pmol/mg protein/min
OAT4 [3]; [11]
  Kt: 295 ± 99 µM and 295 ± 99.0 µM
  Vmax: 345 ± 54.8 pmol/mg protein*min^−1
OAT4 [3]; lower concentration range (high-affinity)
  Vmax: 42.0 ± 93.4 pmol/mg protein*min^−1
OAT4 [3]; lower concentration range (high-affinity), 30 s
  Kt: 30.5 ± 75.0 µM
placenta
  clearance index, direction of transfer: higher in the fetal-to-maternal direction than in the maternal-to-fetal direction
  drug crossing the placenta from the maternal to fetal direction: 18 ± 4%
OATP2A1 [4]; OATP2A1, 1 μM pravastatin, 37°C, neutral pH
  Uptake, Transporter-expressing cells: 0.46 ± 0.06 pmol/mg protein/min
OATP2A1 [4]; [12]
  Kt: 188 ± 109 µM
  Vmax: 73.8 ± 19.2 pmol/mg protein*min^−1
OATP2A1 [4]; control cells for OATP2A1, 1 μM pravastatin, neutral pH
  Uptake, Control: 0.26 ± 0.06 pmol/mg protein/min
OAT4 [5]; OAT4-expressing cells, chloride-free condition, 60 s efflux, preload 4 μM
  remaining preloaded pravastatin: 39 ± 2%
OAT4 [5]; chloride-free condition, OAT4-expressing cells
  estimated Ke of the pravastatin efflux: 2.1 ± 0.5 10^−2s^−1
OAT4 [5]; chloride-free condition, control cells
  estimated Ke of the pravastatin efflux: 3.6 ± 2.1 10^−2s^−1
OAT4 [5]; presence of extracellular chloride, OAT4-expressing cells
  estimated Ke of the pravastatin efflux: 2.6 ± 0.6 10^−2s^−1
OAT4 [5]; presence of extracellular chloride, control cells
  estimated Ke of the pravastatin efflux: 3.0 ± 1.0 10^−2s^−1
Placental BM vesicles [6]; 4°C, 0.5-2 μM
  net (glutarate-dependent) uptake into BM vesicles at 4°C: negligible
Placental BM vesicles [6]; BM vesicles, glutarate preload, Fig 1A
  trans-stimulatory effect of glutarate on the uptake into placental BM vesicles (increase): 18%
Placental BM vesicles [6]; pravastatin concentrations below 1 μM, 37°C
  glutarate-stimulated uptake into BM vesicles: did not detect any glutarate-stimulated uptake
Placental BM vesicles [6]; two-fold increase of substrate from 1 μM to 2 μM, 37°C
  glutarate-stimulated uptake into BM vesicles, concentration dependence: proportional increase
Placental AM vesicles
  glutarate-stimulated uptake into AM vesicles: insignificant
OAT4 [7]
  Kt: 257 µM
OATP1A2; OATP1A2, 0.75 μM [3H]Pravastatin, 30 s, neutral pH
  Uptake, Net (transporter-mediated): 1.06 ± 0.32 pmol/mg protein/min
OATP1A2; OATP1A2, 0.75 μM [3H]Pravastatin, 37°C, 30 s, neutral pH
  Uptake, Transporter-expressing cells: 1.73 ± 0.31 pmol/mg protein/min
OATP1A2; [13]
  apparent Kt: 23.6 ± 2.87 µM
  apparent Vmax: 361 ± 29.3 pmol/mg protein*min^−1
OATP1A2; [14]
  Kt: 1.60 ± 0.97 µM
  Vmax: 4.08 ± 0.72 pmol/mg protein*min^−1
OATP1A2; control cells for OATP1A2, 0.75 μM [3H]Pravastatin, 30 s, neutral pH
  Uptake, Control: 0.66 ± 0.15 pmol/mg protein/min
OATP2B1; OATP2B1, 0.75 μM [3H]Pravastatin, 37°C, 1 min, neutral pH
  Uptake, Transporter-expressing cells: 0.71 ± 0.13 pmol/mg protein/min
OATP2B1; OATP2B1, 0.75 μM [3H]Pravastatin, 1 min, neutral pH
  Uptake, Net (transporter-mediated): 0.10 ± 0.16 pmol/mg protein/min
OATP2B1; control cells for OATP2B1, 0.75 μM [3H]Pravastatin, 1 min, neutral pH
  Uptake, Control: 0.61 ± 0.13 pmol/mg protein/min
OATP2B1; pH 7.4
  OATP2B1-mediated uptake: did not detect any OATP2B1-mediated uptake
OATP5A1; OATP5A1, 10 μM pravastatin, 37°C, 1 min, neutral pH
  Uptake, Transporter-expressing cells: 1.85 ± 0.18 pmol/mg protein/min
OATP5A1; OATP5A1, 10 μM pravastatin, 1 min, neutral pH
  Uptake, Net (transporter-mediated): 0.23 ± 0.01 pmol/mg protein/min
OATP5A1; control cells for OATP5A1, 10 μM pravastatin, 1 min, neutral pH
  Uptake, Control: 1.62 ± 0.18 pmol/mg protein/min
OATP5A1
  transport by OATP5A1 in HEK293-OATP5A1 cells: none of the substrates tested, namely pravastatin, E3S, PE2 and fluorescein were found to be transported
[8]
  steady state plasma concentrations: nanomolar range

## O=C(O)Cc1ccccc1Nc1c(Cl)cccc1Cl [diclofenac]
OATP2A1 [9]; diclofenac 20 μM
  decrease of the net, OATP2A1-dependent, uptake of pravastatin: 50%
OATP2A1 [9]; diclofenac 200 μM
  effect on uptake of pravastatin into OATP2A1-expressing cells: did not result in a statistically significant decrease

## O=C1OC2(c3ccc(O)cc3Oc3cc(O)ccc32)c2ccccc21 [fluorescein, sodium fluorescein]
OATP5A1
  transport by OATP5A1 in HEK293-OATP5A1 cells: none of the substrates tested, namely pravastatin, E3S, PE2 and fluorescein were found to be transported

## CCCc1nc(C(C)(C)O)c(C(=O)O)n1Cc1ccc(-c2ccccc2-c2nnn[nH]2)cc1 [olmesartan]
Placental BM vesicles [1]
  increase of the uptake into placental BM vesicles by glutarate trans-stimulation: 33%
